# From PMC9832397 (Nature chemistry, 2022)
# Key:
# [1] = target: T1, MAT (malonyl-/acetyl transferase domain of murine FAS) (Mus musculus, UniProt P19096); test: enzyme-coupled fluorometric transacylation assay; format: biochemical; settings: individual domains; acceptor DEBS ACP6 presumed
# T1 sequence (P19096 488-816 limits assumed): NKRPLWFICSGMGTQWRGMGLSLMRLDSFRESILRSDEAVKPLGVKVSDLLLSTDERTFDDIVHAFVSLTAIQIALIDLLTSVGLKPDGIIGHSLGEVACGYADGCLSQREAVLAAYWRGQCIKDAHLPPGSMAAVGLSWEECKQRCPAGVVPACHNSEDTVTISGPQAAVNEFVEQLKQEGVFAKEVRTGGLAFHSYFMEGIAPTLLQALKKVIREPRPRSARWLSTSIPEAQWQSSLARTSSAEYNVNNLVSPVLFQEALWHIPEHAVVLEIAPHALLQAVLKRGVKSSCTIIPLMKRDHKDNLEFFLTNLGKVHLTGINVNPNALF
# DEBS M6+TE (WT) = DEBS M6+TE (WT) (Saccharopolyspora erythraea, UniProt Q03133); test: NADPH consumption assay; format: biochemical; settings: 400 mM phosphate pH 7.2, 25 °C
# [2] = target: DEBS module 6 including its C-terminal TE domain (DEBS M6+TE), wildtype (Saccharopolyspora erythraea); test: SEC
# Sequence of DEBS M6+TE (WT) (Q03133 1470-3172 limits assumed): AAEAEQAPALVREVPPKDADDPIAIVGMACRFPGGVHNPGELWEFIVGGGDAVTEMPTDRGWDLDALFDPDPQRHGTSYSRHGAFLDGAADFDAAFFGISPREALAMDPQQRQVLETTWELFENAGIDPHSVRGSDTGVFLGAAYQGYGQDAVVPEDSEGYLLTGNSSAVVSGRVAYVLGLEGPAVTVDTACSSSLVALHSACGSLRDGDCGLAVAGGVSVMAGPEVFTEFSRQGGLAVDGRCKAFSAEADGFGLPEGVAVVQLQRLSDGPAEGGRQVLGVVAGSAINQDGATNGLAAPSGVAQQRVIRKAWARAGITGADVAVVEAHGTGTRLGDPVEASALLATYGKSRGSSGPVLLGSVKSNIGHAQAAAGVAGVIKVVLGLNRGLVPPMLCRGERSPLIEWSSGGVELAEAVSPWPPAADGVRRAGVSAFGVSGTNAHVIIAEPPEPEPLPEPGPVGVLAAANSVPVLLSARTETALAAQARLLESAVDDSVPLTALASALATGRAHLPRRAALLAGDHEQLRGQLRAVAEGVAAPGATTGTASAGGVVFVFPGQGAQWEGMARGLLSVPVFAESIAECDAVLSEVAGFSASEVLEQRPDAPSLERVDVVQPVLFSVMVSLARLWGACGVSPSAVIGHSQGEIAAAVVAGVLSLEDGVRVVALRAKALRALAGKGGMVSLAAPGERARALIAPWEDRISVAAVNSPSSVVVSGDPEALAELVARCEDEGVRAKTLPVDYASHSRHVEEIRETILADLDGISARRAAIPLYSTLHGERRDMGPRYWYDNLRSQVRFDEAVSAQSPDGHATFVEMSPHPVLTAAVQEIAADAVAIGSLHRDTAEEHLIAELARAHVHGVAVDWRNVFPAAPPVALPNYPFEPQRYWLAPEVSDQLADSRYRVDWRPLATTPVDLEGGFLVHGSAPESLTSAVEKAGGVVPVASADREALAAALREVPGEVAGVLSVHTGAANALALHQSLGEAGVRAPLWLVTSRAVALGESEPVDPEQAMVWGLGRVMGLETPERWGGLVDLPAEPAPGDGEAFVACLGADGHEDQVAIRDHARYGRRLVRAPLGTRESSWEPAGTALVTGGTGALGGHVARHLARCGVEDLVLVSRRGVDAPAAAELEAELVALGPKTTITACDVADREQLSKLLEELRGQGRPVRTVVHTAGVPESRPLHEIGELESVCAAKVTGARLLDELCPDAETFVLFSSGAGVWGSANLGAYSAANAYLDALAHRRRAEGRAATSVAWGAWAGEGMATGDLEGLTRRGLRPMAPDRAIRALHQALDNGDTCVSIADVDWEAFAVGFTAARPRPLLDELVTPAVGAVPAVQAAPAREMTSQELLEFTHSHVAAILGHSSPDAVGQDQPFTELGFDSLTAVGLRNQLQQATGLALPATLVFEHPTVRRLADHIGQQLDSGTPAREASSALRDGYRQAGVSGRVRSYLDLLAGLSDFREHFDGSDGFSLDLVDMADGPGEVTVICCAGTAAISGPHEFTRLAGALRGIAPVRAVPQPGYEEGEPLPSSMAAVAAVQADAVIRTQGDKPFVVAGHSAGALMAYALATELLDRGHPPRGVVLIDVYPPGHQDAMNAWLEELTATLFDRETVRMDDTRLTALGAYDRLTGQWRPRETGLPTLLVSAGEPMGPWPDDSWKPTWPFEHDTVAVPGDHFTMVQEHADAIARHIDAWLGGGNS
# Sequence of DEBS module 6 including its C-terminal TE domain (DEBS M6+TE), wildtype (domain or fragment) (Q03133 2-3172): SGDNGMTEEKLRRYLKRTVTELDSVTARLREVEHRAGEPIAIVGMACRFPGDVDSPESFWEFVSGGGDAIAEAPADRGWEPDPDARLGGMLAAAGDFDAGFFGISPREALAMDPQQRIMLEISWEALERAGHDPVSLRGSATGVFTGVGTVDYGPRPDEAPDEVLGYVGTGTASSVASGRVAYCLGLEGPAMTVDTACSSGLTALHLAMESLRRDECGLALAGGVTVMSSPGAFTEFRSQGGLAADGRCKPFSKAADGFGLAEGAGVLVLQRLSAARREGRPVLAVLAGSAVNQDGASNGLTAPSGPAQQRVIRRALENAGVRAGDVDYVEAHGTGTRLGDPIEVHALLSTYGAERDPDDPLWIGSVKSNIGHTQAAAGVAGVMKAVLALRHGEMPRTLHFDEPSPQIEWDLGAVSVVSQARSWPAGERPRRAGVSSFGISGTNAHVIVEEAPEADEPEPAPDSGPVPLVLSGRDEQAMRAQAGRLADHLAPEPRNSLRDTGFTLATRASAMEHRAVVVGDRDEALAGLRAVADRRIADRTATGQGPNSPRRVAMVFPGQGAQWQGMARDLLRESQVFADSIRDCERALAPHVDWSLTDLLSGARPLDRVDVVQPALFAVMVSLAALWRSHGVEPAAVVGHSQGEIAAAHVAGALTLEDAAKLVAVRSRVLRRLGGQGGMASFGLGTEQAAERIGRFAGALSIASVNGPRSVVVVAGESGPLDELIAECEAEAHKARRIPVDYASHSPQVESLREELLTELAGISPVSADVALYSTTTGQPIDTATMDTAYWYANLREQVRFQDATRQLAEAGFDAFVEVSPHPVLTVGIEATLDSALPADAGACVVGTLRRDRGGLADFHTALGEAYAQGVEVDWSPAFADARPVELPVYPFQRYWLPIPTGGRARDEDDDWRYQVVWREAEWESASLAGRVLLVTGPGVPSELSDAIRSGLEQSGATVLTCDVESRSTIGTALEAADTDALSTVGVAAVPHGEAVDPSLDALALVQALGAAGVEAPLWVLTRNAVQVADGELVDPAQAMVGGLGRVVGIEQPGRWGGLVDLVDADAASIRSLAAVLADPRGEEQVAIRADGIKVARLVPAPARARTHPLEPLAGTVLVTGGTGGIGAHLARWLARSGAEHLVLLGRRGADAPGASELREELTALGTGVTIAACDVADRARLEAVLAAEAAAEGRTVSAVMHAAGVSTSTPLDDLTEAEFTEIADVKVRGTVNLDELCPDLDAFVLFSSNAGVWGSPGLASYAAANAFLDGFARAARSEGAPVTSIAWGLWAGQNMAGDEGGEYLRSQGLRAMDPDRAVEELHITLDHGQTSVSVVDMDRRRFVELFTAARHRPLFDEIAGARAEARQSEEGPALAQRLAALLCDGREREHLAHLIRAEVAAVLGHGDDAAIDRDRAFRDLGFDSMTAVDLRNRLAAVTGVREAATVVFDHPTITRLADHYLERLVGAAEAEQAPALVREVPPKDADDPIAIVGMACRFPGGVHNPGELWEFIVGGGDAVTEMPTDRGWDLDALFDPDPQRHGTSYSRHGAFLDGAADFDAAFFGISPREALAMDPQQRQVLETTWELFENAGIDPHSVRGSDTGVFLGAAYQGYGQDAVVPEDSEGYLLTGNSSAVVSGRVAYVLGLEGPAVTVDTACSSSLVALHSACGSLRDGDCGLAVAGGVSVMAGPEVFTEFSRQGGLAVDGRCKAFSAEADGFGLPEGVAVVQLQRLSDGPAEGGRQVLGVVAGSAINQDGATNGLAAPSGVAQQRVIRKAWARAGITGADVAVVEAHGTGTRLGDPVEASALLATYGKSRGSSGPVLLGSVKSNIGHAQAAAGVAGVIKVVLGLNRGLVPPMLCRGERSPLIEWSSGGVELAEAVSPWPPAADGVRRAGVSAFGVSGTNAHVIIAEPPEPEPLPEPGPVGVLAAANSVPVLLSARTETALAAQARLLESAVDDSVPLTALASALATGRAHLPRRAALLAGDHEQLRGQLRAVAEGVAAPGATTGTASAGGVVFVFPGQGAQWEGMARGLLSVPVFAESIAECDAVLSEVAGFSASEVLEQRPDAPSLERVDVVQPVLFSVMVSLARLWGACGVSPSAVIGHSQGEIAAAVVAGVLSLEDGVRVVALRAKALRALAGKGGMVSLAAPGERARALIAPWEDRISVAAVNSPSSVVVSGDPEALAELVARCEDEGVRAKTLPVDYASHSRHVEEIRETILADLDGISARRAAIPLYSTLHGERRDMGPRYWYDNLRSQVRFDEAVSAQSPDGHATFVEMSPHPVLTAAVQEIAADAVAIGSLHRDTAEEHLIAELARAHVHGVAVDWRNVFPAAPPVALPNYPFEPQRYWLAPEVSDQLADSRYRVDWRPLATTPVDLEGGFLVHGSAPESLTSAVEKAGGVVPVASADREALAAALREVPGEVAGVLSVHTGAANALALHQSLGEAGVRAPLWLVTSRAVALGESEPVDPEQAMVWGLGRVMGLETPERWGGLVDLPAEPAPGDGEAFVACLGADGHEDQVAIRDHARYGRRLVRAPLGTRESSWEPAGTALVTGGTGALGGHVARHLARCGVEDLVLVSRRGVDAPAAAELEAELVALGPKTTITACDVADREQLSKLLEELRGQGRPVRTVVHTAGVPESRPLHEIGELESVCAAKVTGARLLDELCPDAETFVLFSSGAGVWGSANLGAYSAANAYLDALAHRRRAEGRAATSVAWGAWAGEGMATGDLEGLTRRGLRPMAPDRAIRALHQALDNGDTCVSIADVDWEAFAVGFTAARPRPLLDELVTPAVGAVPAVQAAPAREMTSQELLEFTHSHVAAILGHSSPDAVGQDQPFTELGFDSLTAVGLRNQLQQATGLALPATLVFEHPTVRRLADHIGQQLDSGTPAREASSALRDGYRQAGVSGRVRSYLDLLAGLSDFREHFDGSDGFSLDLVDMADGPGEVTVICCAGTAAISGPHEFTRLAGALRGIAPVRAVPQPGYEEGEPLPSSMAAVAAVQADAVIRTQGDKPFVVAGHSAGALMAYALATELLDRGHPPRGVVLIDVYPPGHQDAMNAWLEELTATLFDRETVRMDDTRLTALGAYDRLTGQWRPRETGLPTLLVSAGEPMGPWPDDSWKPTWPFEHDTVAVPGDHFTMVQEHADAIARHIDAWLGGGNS
compound,measurement,setting,value
"CC(C)(COP(=O)(O)OP(=O)(O)OC[C@H]1O[C@@H](n2cnc3c(N)ncnc32)[C@H](O)[C@@H]1OP(=O)(O)O)[C@@H](O)C(=O)NCCC(=O)NCCSC(=O)C(F)C(=O)O (mixture of isomers) [compound 1, F-Mal-CoA]",Km,[1],we observed excellent transfer kinetics of MAT for F-Mal-CoA
"CC[C@@H](O)[C@H](C)C(=O)SCCNC(C)=O [compound 2, (2S,3R)-2-methyl-3-hydroxypentanoyl-N-acetylcysteamine thioester]",turnover rate,"DEBS M6+TE (WT); MM-CoA, NADPH","Turnover rates for the WT-, H1- and H2-mediated formation of TKLs"
"DEBS module 6 including its C-terminal TE domain (DEBS M6+TE), wildtype (domain or fragment)",stoichiometry N,[2],2
CC(C(=O)O)C(=O)SCCNC(=O)CCNC(=O)[C@H](O)C(C)(C)COP(=O)(O)OP(=O)(O)OC[C@H]1O[C@@H](n2cnc3c(N)ncnc32)[C@H](O)[C@@H]1OP(=O)(O)O (some centres unmarked) [MM-CoA],turnover rate,"DEBS M6+TE (WT); diketide 2, NADPH","Turnover rates for the WT-, H1- and H2-mediated formation of TKLs"
"CC(F)(C(=O)O)C(=O)SCCNC(=O)CCNC(=O)[C@H](O)C(C)(C)COP(=O)(O)OP(=O)(O)OC[C@H]1O[C@@H](n2cnc3c(N)ncnc32)[C@H](O)[C@@H]1OP(=O)(O)O (mixture of isomers) [compound 17, F-MM-CoA]",Km,[1],the MAT showed excellent transfer kinetics for F-MM-CoA
